Results as given in PubChem BioAssay (NCI).
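Step 1: Grow cells in 96-well plates. Step 2: Expose to compound for 48 hours at 5 concentrations. Step 3: Interpolate endpoints linearly; if unreached, use highest concentration. The concentration for 50% growth inhibition is given as GI50. At the TGI there is no net growth.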

What was measured:
Assay in all cases: growth of human tumour cells (NCI), 48 h
[1] = system: T-47D breast
[2] = system: NCI-H226 lung
[3] = system: CCRF-CEM leukemia
[4] = system: HT29 colon
[5] = system: SF-268 CNS
[6] = system: RPMI-8226 leukemia
[7] = system: HCT-116 colon
[8] = system: HOP-62 NSCLC
[9] = system: MDA-MB-435
[10] = system: MALME-3M melanoma
[11] = system: HCT-15 colon
[12] = system: MOLT-4 leukemia
[13] = system: HS 578T breast
[14] = system: OVCAR-3 ovarian
[15] = system: HOP-92 NSCLC
[16] = system: MCF7 breast
[17] = system: SNB-75 CNS
[18] = system: SF-295 CNS
[19] = system: M14 melanoma
[20] = system: 786-0 renal
[21] = system: DU-145 prostate
[22] = system: OVCAR-5 ovarian
[23] = system: ACHN renal
[24] = system: SR leukemia
[25] = system: PC-3 prostate
[26] = system: BT-549 breast
[27] = system: EKVX NSCLC
[28] = system: RXF 393 renal
[29] = system: HCC-2998 colon
[30] = system: TK-10 renal
[31] = system: UACC-257 melanoma
[32] = system: HL-60(TB) leukemia
[33] = system: COLO 205 colon
[34] = system: CAKI-1 renal
[35] = system: UO-31 renal
[36] = system: IGROV1 ovarian
[37] = system: SNB-19 CNS
[38] = system: SK-MEL-2 melanoma
[39] = system: SN12C renal
[40] = system: A498 renal
[41] = system: NCI-H23 lung
[42] = system: SK-MEL-28 melanoma
[43] = system: KM12 colon
[44] = system: OVCAR-8 ovarian
[45] = system: NCI-H522 lung
[46] = system: NCI-H460 lung
[47] = system: OVCAR-4 ovarian
[48] = system: NCI/ADR-RES ovarian
[49] = system: UACC-62 melanoma
[50] = system: SK-OV-3 ovarian
[51] = system: MDA-MB-231 breast
[52] = system: SW-620 colon
[53] = system: K-562 leukemia
[54] = system: U251 CNS
[55] = system: A549 NSCLC
[56] = system: SK-MEL-5 melanoma
[57] = system: LOX IMVI melanoma
[58] = system: SF-539 CNS

CCCCCN(CCCCC)CC(O)c1ccc(Cl)c2ccccc12 (stereo not given)
GI50 [1]: 4.93 µM
TGI [1]: 19.4 µM
GI50 [2]: 10 µM
TGI [2]: 23.1 µM
GI50 [3]: 10.5 µM
TGI [3]: 33.1 µM
GI50 [4]: 2.24 µM
TGI [4]: 20.6 µM
GI50 [5]: 13.5 µM
TGI [5]: 30.1 µM
GI50 [6]: 6.43 µM
TGI [6]: 27.6 µM
GI50 [7]: 2.13 µM
TGI [7]: 13.1 µM
GI50 [8]: 13.1 µM
TGI [8]: 26.5 µM
GI50 [9]: 6.43 µM
TGI [9]: 45 µM
GI50 [10]: 15.4 µM
TGI [10]: 32 µM
GI50 [11]: 6.98 µM
TGI [11]: 22.1 µM
GI50 [12]: 6.69 µM
TGI [12]: 24 µM
GI50 [13]: 10.8 µM
TGI [13]: 33.9 µM
GI50 [14]: 12.4 µM
TGI [14]: 26.5 µM
GI50 [15]: 0.974 µM
TGI [15]: 14 µM
GI50 [16]: 6.89 µM
TGI [16]: 20.5 µM
GI50 [17]: 11.7 µM
TGI [17]: 35.8 µM
GI50 [18]: 3.99 µM
TGI [18]: 26.3 µM
GI50 [19]: 4.51 µM
TGI [19]: 18.7 µM
GI50 [20]: 11.7 µM
TGI [20]: 24.8 µM
GI50 [21]: 12.1 µM
TGI [21]: 30.6 µM
GI50 [22]: 9.41 µM
TGI [22]: 22 µM
GI50 [23]: 10.3 µM
TGI [23]: 22.5 µM
GI50 [24]: 4.11 µM
TGI [24]: 14.7 µM
GI50 [25]: 12.3 µM
TGI [25]: 31.5 µM
GI50 [26]: 16.3 µM
TGI [26]: 33.7 µM
GI50 [27]: 10.8 µM
TGI [27]: 30.4 µM
GI50 [28]: 2.13 µM
TGI [28]: 8 µM
GI50 [29]: 3.34 µM
TGI [29]: 9.72 µM
GI50 [30]: 15.5 µM
TGI [30]: 33.9 µM
GI50 [31]: 18.8 µM
TGI [31]: 38.7 µM
GI50 [32]: 5.5 µM
TGI [32]: 20.9 µM
GI50 [33]: 3.6 µM
TGI [33]: 16.5 µM
GI50 [34]: 3.35 µM
TGI [34]: 18.6 µM
GI50 [35]: 5.16 µM
TGI [35]: 20.6 µM
GI50 [36]: 4.92 µM
TGI [36]: 24.3 µM
GI50 [37]: 12.7 µM
TGI [37]: 30.1 µM
GI50 [38]: 17.4 µM
TGI [38]: 38.2 µM
GI50 [39]: 10.6 µM
TGI [39]: 24.6 µM
GI50 [40]: 10.3 µM
TGI [40]: 29.3 µM
GI50 [41]: 4.5 µM
TGI [41]: 19.9 µM
GI50 [42]: 11.2 µM
TGI [42]: 24.4 µM
GI50 [43]: 6.11 µM
TGI [43]: 25 µM
GI50 [44]: 16.6 µM
TGI [44]: 36.6 µM
GI50 [45]: 14.4 µM
TGI [45]: 32.1 µM
GI50 [46]: 3.72 µM
TGI [46]: 19.1 µM
GI50 [47]: 12.2 µM
TGI [47]: 72.5 µM
GI50 [48]: 11.1 µM
TGI [48]: 24.8 µM
GI50 [49]: 6.25 µM
TGI [49]: 22.2 µM
GI50 [50]: 13.8 µM
TGI [50]: 37.5 µM
GI50 [51]: 10.8 µM
TGI [51]: 26.4 µM
GI50 [52]: 2.77 µM
TGI [52]: 13.6 µM
GI50 [53]: 4.23 µM
TGI [53]: 20.8 µM
GI50 [54]: 12.3 µM
TGI [54]: 28.6 µM
GI50 [55]: 14.2 µM
TGI [55]: 34 µM
GI50 [56]: 8.39 µM
TGI [56]: 20.8 µM
GI50 [57]: 3.94 µM
TGI [57]: 16.4 µM

CN(C)/C=N/S(=O)(=O)c1nn2c(C=O)c(-c3ccc(Cl)cc3)nc2s1
TGI [1]: 3.36 µM
TGI [2]: 9.86 µM
TGI [3]: 0.701 µM
TGI [4]: 0.552 µM
TGI [5]: 12.6 µM
TGI [6]: 4.22 µM
TGI [7]: 2.18 µM
TGI [8]: 27.5 µM
TGI [9]: 7.92 µM
TGI [10]: 3.2 µM
TGI [11]: 5.63 µM
TGI [12]: 2.68 µM
TGI [13]: > 22 µM
TGI [14]: 2.87 µM
TGI [15]: 7.17 µM
TGI [16]: 2.68 µM
TGI [17]: 24.3 µM
TGI [18]: 28.2 µM
TGI [19]: 2.17 µM
TGI [20]: 2.5 µM
TGI [21]: 6.02 µM
TGI [22]: 5.55 µM
TGI [23]: 2.36 µM
TGI [24]: 3.4 µM
TGI [25]: 9.38 µM
TGI [26]: 2.83 µM
TGI [27]: 12.7 µM
TGI [28]: 3.37 µM
TGI [29]: 9.75 µM
TGI [58]: 5.21 µM
TGI [30]: 2.88 µM
TGI [31]: 9.83 µM
TGI [33]: 2.81 µM
TGI [34]: 2.58 µM
TGI [35]: 2.18 µM
TGI [37]: 28.8 µM
TGI [38]: 21.3 µM
TGI [39]: 5.94 µM
TGI [40]: 30.3 µM
TGI [41]: 9.81 µM
TGI [42]: 3.33 µM
TGI [43]: 17.6 µM
TGI [44]: 3.2 µM
TGI [45]: 2.12 µM
TGI [46]: 22.4 µM
TGI [47]: 3.58 µM
TGI [48]: 10.6 µM
TGI [49]: 14.3 µM
TGI [50]: 29.5 µM
TGI [51]: 7.77 µM
TGI [52]: 1.52 µM
TGI [53]: 3.04 µM
TGI [54]: 11.7 µM
TGI [55]: 20.2 µM
TGI [56]: 2.98 µM
TGI [57]: 2.85 µM
